Experimental data published in patent publication US10167285B2, “Small-molecule HSP90 inhibitors” (Memorial Sloan Kettering Cancer Center, priority 2005, dated 2019).

Tests used:
[1] = system: Hsp90 heart; assay: Hsp90 competition assay, heart homogenate
Protocol: (§3) Hsp90 competition assay. Fluorescence polarization measurements were performed on an Analyst AD instrument (Molecular Devices, Sunnyvale, Calif.). […] The assay buffer (HFB) contained 20 mM HEPES (K) pH 7.3, 50 mM KCl, 5 mM MgCl2, 20 mM Na2MoO4, 0.01% NP40. Before each use, 0.1 mg/mL bovine gamma globulin (BGG) (Panvera Corporation, Madison, Wis.) and 2 mM DTT (Fisher Biotech, Fair Lawn, N.J.) were freshly added. […] Cell lysates were prepared rupturing cellular membranes by freezing at −70° C. and dissolving the cellular extract in HFB with added protease and phosphotase inhibitors. Organs were harvested from a healthy mouse and homogenized in HFB. Saturation curves were recorded in which GM-BODIPY (5 nM) was treated with increasing amounts of cellular lysates.

[2] = system: H69AR; assay: Growth over 96 h in adriamycin-resistant SCLC cells; assay type: cell-based; conditions: resistant to adriamycin
Protocol: (§1) Growth over 96 h was assessed.

[3] = Plasma and tumor levels in small cell lung cancer model; conditions: tumor
[4] = system: SKI-Chen; assay: Growth over 96 h in therapy-resistant SCLC cells; assay type: cell-based; conditions: from a patient who failed every conventional therapy
Protocol: as §1

[5] = system: Hsp90 SKBr3; assay: Hsp90 competition assay, SKBr3 cell lysate; conditions: read-out: EC50 Hsp90 SKBr3
Protocol: Hsp90 competition assay. Fluorescence polarization measurements were performed on an Analyst AD instrument (Molecular Devices, Sunnyvale, Calif.). […] The assay buffer (HFB) contained 20 mM HEPES (K) pH 7.3, 50 mM KCl, 5 mM MgCl2, 20 mM Na2MoO4, 0.01% NP40. Before each use, 0.1 mg/mL bovine gamma globulin (BGG) (Panvera Corporation, Madison, Wis.) and 2 mM DTT (Fisher Biotech, Fair Lawn, N.J.) were freshly added. GM-BODIPY was synthesized as previously reported^23a and was dissolved in DMSO to form 10 μM solutions. Recombinant Hsp90α was purchased from Stressgen Bioreagents (cat. No. SPP-776), (Victoria, Canada). Cell lysates were prepared rupturing cellular membranes by freezing at −70° C. and dissolving the cellular extract in HFB with added protease and phosphotase inhibitors. […] Saturation curves were recorded in which GM-BODIPY (5 nM) was treated with increasing amounts of cellular lysates.

[6] = system: small cell lung tumors; assay: Tumor growth inhibition in small cell lung cancer model; assay type: in vivo
[7] = system: U251 glioma cells; assay: Clonogenic survival assay, radiosensitization; assay type: cell-based, human
Protocol: (§2) Colony forming efficiency was determined 10-12 days later and survival curves generated after normalizing for cell killing by Compound 9 alone. The results are summarized in FIG. 11A (Compound 9) and B (Compound 8).

[8] = system: U87 glioma cells; assay: Clonogenic survival assay, radiosensitization; assay type: cell-based, human
Protocol: as §2

[9] = system: SKBr3 breast cancer cells; assay: Growth inhibition, sulforhodamine B assay; assay type: cell-based, human; conditions: Homo sapiens, SK-BR-3, 72 h, average of 3 measurements
Protocol: Cell culture. The human breast cancer cell lines SKBr3 and MDA-MB-468 were a gift from Dr. Neal Rosen (MSKCC). Cells were maintained in 1:1 mixture of DME:F12 supplemented with 2 mM glutamine, 50 units/mL penicillin, 50 […] and 10% heat inactivated fetal bovine serum (Gemini Bioproducts #100-10b) and incubated at 37° C., 5% CO2. Growth assays. Growth inhibition studies were performed using the sulforhodamine B assay as previously described.^29 In summary, experimental cultures were plated in microtiter plates (Nunc #167008). One column of wells was left without cells to serve as the blank control. Cells were allowed to attach overnight. The following day, growth medium having either drug or DMSO at twice the desired initial concentration was added to the plate in triplicate and was serially diluted at a 1:1 ratio in the microtiter plate. After 72 h of growth, the cell number in treated versus control wells was estimated after treatment with 50% trichloroacetic acid and staining with 0.4% sulforhodamine B in 1% acetic acid. […] Normal human renal proximal tubular epithelial (RPTEC) cells were purchased pre-seeded in 96-well plates (Clonetics, CC-3190). Upon receipt, cells were placed in a humidified incubator at 37° C., 5% CO2 and allowed to equilibrate for 3 h. Media was removed by suction and replaced with fresh media provided by the manufacturer. Cells were then treated with either drugs or DMSO for 72 h and the IC50 values were determined as described above.

[10] = Solubility in PBS; assay type: physicochemical; conditions: aqueous buffer, acid addition salt form
Protocol: as §1

[11] = Blood brain barrier penetration
[12] = system: MDA-MB-468 cells; assay: Anti-mitotic assay (Tg-3 microtiter immunoassay); assay type: cell-based, human; conditions: 24 h, concentration dependent increase in Tg-3 luminescence
Protocol: Anti-mitotic assay. Black, clear-bottom microtiter 96-well plates (Corning Costar #3603) were used to accommodate experimental cultures. MDA-MB-468 cells were seeded in each well at 8,000 cells per well in growth medium (100 μL), and allowed to attach overnight at 37° C. and 5% CO2. Growth medium (100 μL) with drug or vehicle (DMSO) was gently added to the wells, and the plates were incubated at 37° C. and 5% CO2 for 24 h. Wells were washed with ice-cold TBST (2×200 μL). A house vacuum source attached to an eight-channel aspirator was used to remove the liquid from the 96-well plates. Ice-cold methanol (100 μL) was added to each well, and the plate was placed at 4° C. for 5 min. Methanol was removed by suction and plates were washed with ice-cold TBST (2×200 μL). Plates were further incubated with SuperBlock® blocking buffer (Pierce #37535) (200 μL) for 2 h at RT. The Tg-3 antibody (gift of Dr. Davies, Albert Einstein College of Medicine) diluted 1:200 in SuperBlock® was placed in each well (100 μL) except the control column that was treated with control antibody (Mouse IgM, NeoMarkers, NC-1030-P). After 72 h, wells were washed with ice-cold TBST (2×200 μL). […] Un-reacted antibody was removed by washing the plates with ice-cold TBST (3×200 μL) for 5 min on a shaker. The ECLTM Western Blotting Detection Reagents 1 and 2 in 1:1 mix (100 μL) was placed in each well and the plates were read immediately in an Analyst AD plate reader (Molecular Devices). Luminescence readings were imported into SOFTmax PROR 4.3.1. Anti-mitotic activity was defined as a concentration dependent increase in luminescence readings in compound-treated wells as compared to DMSO only treated wells.

[13] = system: Hsp90 client proteins (Raf-1, Akt), PARP cleavage; assay: Pharmacodynamics in small cell lung tumors; assay type: in vivo
[14] = system: Hsp90 lung; assay: Hsp90 competition assay, lung homogenate
Protocol: as §3

For `CC(C)NCCCn1c(Sc2cc3c(cc2I)OCO3)nc2c(N)ncnc21` [Example 9, 8-(6-Iodo-benzo[1,3]dioxol-5-ylsulfanyl)-9-(3-isopropylamino-propyl)adenine], the Heart/SKBr3 ([1]; ratio of EC50 Hsp90 values) was 140, the EC50 ([1]; read-out: EC50 Hsp90 heart, normal tissue) was 6900 ± 150 nM and the “activity in resistant SCLC cell line” value [2] was “retains its activity”. For the same compound, the “retention in tumors at pharmacologic doses” value [3] was “more than 36 h”, the “activity in resistant SCLC cell line” value [4] was “retains its activity” and the EC50 [5] was 50.4 ± 4 nM. For the same compound, the tumor growth ([6]; comparable to 17AAG, FIG. 9D) was “efficiently inhibited the growth”, the “toxicity to the host” value ([6]; in vivo) was “without toxicity” and the “surviving fraction after compound treatment only” value ([7]; U251 cells) was 0.86. The dose enhancement factors ([7]; range across U251 and U87, 16 h exposure before X rays) was 1.4-1.6, the “surviving fraction after compound treatment only” value [8] was 0.68 and the IC50 [9] was 50 ± 5 nM. For the same compound, the solubility [10] was > 5 mM, the “crossing of the blood brain barrier” value [11] was “ability to cross the blood brain barrier” and the Anti-mitotic [12] was “Yes”. For the same compound, the “apoptosis of the tumor (PARP cleavage)” value ([13]; FIG. 9C) was “induces significant apoptosis”, the “Raf-1 and Akt in tumor” value ([13]; one administered dose) was “efficiently degraded or inactivated” and the Lung/SKBr3 ([14]; ratio of EC50 Hsp90 values) was 48. The EC50 ([14]; read-out: EC50 Hsp90 lung, normal tissue) was 2400 ± 240 nM.
